Test results: PubChem BioAssay AID330 (DTP/NCI, 2004)
Values joined by “and” are separate entries in the source; they are usually repeats but may differ in a detail not shown here. Equal entries are not always repeated. Inconclusive results and toxic doses are left out.

Test system: P388 leukemia ip, CD2F1 mice, survival T/C
Assay: NCI In Vivo Anticancer Drug Screen. Data for tumor model P388 Leukemia (intraperitoneal) in CD2F1 (CDF1) mice
Settings: endpoint: median survival time, higher = longer survival
How it was run: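 Mice carrying the transplanted tumor received test compound or vehicle. Survival was recorded in each group, and the value is the treated-group measurement divided by that of the vehicle-treated control group.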

[1] = dose: 12.5 mg/kg/injection, schedule: Q01DX005 (ip), vehicle: saline with Tween-80
[2] = dose: 100.0 mg/kg/injection, schedule: Q01DX001 (ip), vehicle: Klucel (hydroxypropylcellulose) (HPC)
[3] = dose: 60.0 mg/kg/injection, schedule: Q01DX005 (ip), vehicle: saline with Tween-80
[4] = dose: 120.0 mg/kg/injection, schedule: Q01DX005 (ip), vehicle: saline with Tween-80
[5] = dose: 240.0 mg/kg/injection, schedule: Q01DX005 (ip), vehicle: saline with Tween-80
[6] = dose: 12.5 mg/kg/injection, schedule: Q01DX009 (ip), vehicle: Klucel (hydroxypropylcellulose) (HPC)
[7] = dose: 25.0 mg/kg/injection, schedule: Q01DX009 (ip), vehicle: Klucel (hydroxypropylcellulose) (HPC)
[8] = dose: 50.0 mg/kg/injection, schedule: Q01DX009 (ip), vehicle: Klucel (hydroxypropylcellulose) (HPC)
[9] = dose: 100.0 mg/kg/injection, schedule: Q01DX009 (ip), vehicle: Klucel (hydroxypropylcellulose) (HPC)
[10] = dose: 100.0 mg/kg/injection, schedule: Q01DX009 (ip), vehicle: saline with Tween-80
[11] = dose: 200.0 mg/kg/injection, schedule: Q01DX009 (ip), vehicle: saline with Tween-80
[12] = dose: 50.0 mg/kg/injection, schedule: Q01DX009 (ip), vehicle: saline with Tween-80
[13] = dose: 50.0 mg/kg/injection, schedule: Q01DX005 (ip), vehicle: Klucel (hydroxypropylcellulose) (HPC)
[14] = dose: 100.0 mg/kg/injection, schedule: Q01DX005 (ip), vehicle: Klucel (hydroxypropylcellulose) (HPC)
[15] = dose: 200.0 mg/kg/injection, schedule: Q01DX005 (ip), vehicle: Klucel (hydroxypropylcellulose) (HPC)

Q: With CCCCCCCCCCN(CCCCCCCCCC)CC(O)c1ccc2nc3c(cc2c1)CCCC3 (centres undefined) as the compound, how does the T/C [1] read?
A: 101 % of control

Q: And the T/C (dose: 25.0 mg/kg/injection, schedule: Q01DX005 (ip), vehicle: saline with Tween-80)?
A: 101 % of control

Q: What about the T/C (dose: 50.0 mg/kg/injection, schedule: Q01DX005 (ip), vehicle: saline with Tween-80) of the same compound?
A: 102 % of control and 94 % of control

Q: Which results are given for Cc1ccc(C(SCC(N)C(=O)O)(c2ccccc2)c2ccccc2)cc1 (centres undefined)?
A: T/C (dose: 12.5 mg/kg/injection, schedule: Q01DX009 (ip), vehicle: saline with Tween-80): 186 % of control; T/C (dose: 25.0 mg/kg/injection, schedule: Q01DX009 (ip), vehicle: saline with Tween-80): 168 % of control; T/C (dose: 50.0 mg/kg/injection, schedule: Q04DX003 (ip), vehicle: saline with Tween-80): 177 % of control; T/C (dose: 100.0 mg/kg/injection, schedule: Q04DX003 (ip), vehicle: saline with Tween-80): 218 % of control; T/C (dose: 132.0 mg/kg/injection, schedule: Q04DX003 (ip), vehicle: saline with Tween-80): 195 % of control; T/C (dose: 200.0 mg/kg/injection, schedule: Q04DX003 (ip), vehicle: saline with Tween-80): 254 % of control and 272 % of control; T/C (dose: 300.0 mg/kg/injection, schedule: Q04DX003 (ip), vehicle: saline with Tween-80): 263 % of control

Q: Which T/C [2] does the source give for O=C1C2CCC(N1CCc1ccccc1)n1c(=O)n(-c3ccccc3)c(=O)n12 (centres undefined) here?
A: 99 % of control

Q: And the T/C (dose: 200.0 mg/kg/injection, schedule: Q01DX001 (ip), vehicle: Klucel (hydroxypropylcellulose) (HPC))?
A: 104 % of control

Q: What about the T/C (dose: 400.0 mg/kg/injection, schedule: Q01DX001 (ip), vehicle: Klucel (hydroxypropylcellulose) (HPC)) of the same compound?
A: 97 % of control

Q: For O=C(O)CSc1cc(Cl)ccc1Cl, which T/C (dose: 12.5 mg/kg/injection, schedule: Q04DX003 (ip), vehicle: Klucel (hydroxypropylcellulose) (HPC)) is on record?
A: 102 % of control

Q: What about the T/C (dose: 25.0 mg/kg/injection, schedule: Q04DX003 (ip), vehicle: Klucel (hydroxypropylcellulose) (HPC)) of the same compound?
A: 100 % of control

Q: And the T/C (dose: 50.0 mg/kg/injection, schedule: Q04DX003 (ip), vehicle: Klucel (hydroxypropylcellulose) (HPC))?
A: 102 % of control

Q: What about the T/C (dose: 100.0 mg/kg/injection, schedule: Q04DX003 (ip), vehicle: Klucel (hydroxypropylcellulose) (HPC)) of the same compound?
A: 103 % of control

Q: What does the source list for CSc1ccc(/C=N/N=c2ccn(-c3ccc(Cl)cc3)cc2)cc1?
A: T/C (dose: 25.0 mg/kg/injection, schedule: Q01DX001 (ip), vehicle: Klucel (hydroxypropylcellulose) (HPC)): 100 % of control; T/C (dose: 50.0 mg/kg/injection, schedule: Q01DX001 (ip), vehicle: Klucel (hydroxypropylcellulose) (HPC)): 102 % of control; T/C [2]: 100 % of control and 91 % of control

Q: What does the source list for Cc1cc2c(c(C(C)(C)C)c1)OC(=O)/C2=C1/C(=O)Oc2c1cc(C)cc2C(C)(C)C?
A: T/C (dose: 1.87 mg/kg/injection, schedule: Q01DX005 (ip), vehicle: Klucel (hydroxypropylcellulose) (HPC)): 112 % of control; T/C (dose: 3.75 mg/kg/injection, schedule: Q01DX005 (ip), vehicle: Klucel (hydroxypropylcellulose) (HPC)): 101 % of control; T/C (dose: 7.5 mg/kg/injection, schedule: Q01DX005 (ip), vehicle: Klucel (hydroxypropylcellulose) (HPC)): 94 % of control; T/C (dose: 60.0 mg/kg/injection, schedule: Q01DX005 (ip), vehicle: Klucel (hydroxypropylcellulose) (HPC)): 90 % of control

Q: N#Cc1c(-c2nc3ccccc3s2)c(=O)oc2cc(O)ccc12 was tested. Which T/C [3] did it give?
A: 99 % of control

Q: And the T/C [4]?
A: 95 % of control

Q: And the T/C [5]?
A: 95 % of control

Q: With CCC12C=CCN3CC[C@@]4(c5cc([C@@]6(C(=O)OC)CC7CN(CCc8c6[nH]c6ccccc86)C[C@](O)(CC)C7)c(OC)cc5N(C)[C@H]4[C@]4(OCOC4=O)[C@@H]1O)C32 (some centres undefined) as the compound, how does the T/C (dose: 0.5 mg/kg/injection, schedule: Q01DX005 (ip), vehicle: saline) read?
A: 102 % of control

Q: What about the T/C (dose: 1.0 mg/kg/injection, schedule: Q01DX005 (ip), vehicle: saline) of the same compound?
A: 91 % of control

Q: What about the T/C (dose: 2.0 mg/kg/injection, schedule: Q01DX005 (ip), vehicle: saline) of the same compound?
A: 92 % of control

Q: For NC1=NC(=O)C(c2ccccc2)S1 (centres undefined), which T/C [6] is on record?
A: 103 % of control

Q: And the T/C [7]?
A: 99 % of control

Q: And the T/C [8]?
A: 113 % of control

Q: And the T/C [9]?
A: 105 % of control

Q: What does the source list for N#[O+].O.O=N[O-].O=N[O-].[NH2-].[NH2-].[Ru+2]?
A: T/C (dose: 12.5 mg/kg/injection, schedule: Q04DX003 (ip), vehicle: water): 110 % of control; T/C (dose: 25.0 mg/kg/injection, schedule: Q04DX003 (ip), vehicle: water): 111 % of control; T/C (dose: 50.0 mg/kg/injection, schedule: Q04DX003 (ip), vehicle: water): 118 % of control; T/C (dose: 100.0 mg/kg/injection, schedule: Q04DX003 (ip), vehicle: water): 111 % of control; T/C (dose: 200.0 mg/kg/injection, schedule: Q04DX003 (ip), vehicle: water): 102 % of control

Q: For CC(=O)OCC(OC(C)=O)C(OC(C)=O)C(OC(C)=O)C(C#N)OC(C)=O (centres undefined), which T/C [10] is on record?
A: 91 % of control

Q: What about the T/C [11] of the same compound?
A: 87 % of control

Q: What about the T/C (dose: 400.0 mg/kg/injection, schedule: Q01DX009 (ip), vehicle: saline with Tween-80) of the same compound?
A: 91 % of control

Q: And the T/C (dose: 600.0 mg/kg/injection, schedule: Q01DX009 (ip), vehicle: saline with Tween-80)?
A: 87 % of control

Q: c1ccc(-c2ccc(-c3ccccc3)cc2)cc1 was tested. Which T/C [6] did it give?
A: 109 % of control

Q: What about the T/C [7] of the same compound?
A: 97 % of control

Q: And the T/C [8]?
A: 98 % of control

Q: And the T/C [9]?
A: 98 % of control

Q: How did the T/C [12] turn out when CN1CCC(=C2c3ccccc3C(=O)C(=O)c3sccc32)CC1 was run?
A: 95 % of control

Q: What about the T/C [10] of the same compound?
A: 95 % of control

Q: And the T/C [11]?
A: 111 % of control

Q: Which T/C (dose: 1.56 mg/kg/injection, schedule: Q01DX005 (ip), vehicle: Klucel (hydroxypropylcellulose) (HPC)) does the source give for CCC(C)C(N)C(=O)NC(CC(N)=O)C(=O)NC(CC(C)C)C(=O)NC(CCCCN)C(=O)NC(C)C(=O)NC(CC(C)C)C(=O)NC(C)C(=O)NC(C)C(=O)NC(CC(C)C)C(=O)NC(C)C(=O)NC(CCCCN)C(=O)NC(CCCCN)C(=O)NC(C(=O)NC(CC(C)C)C(N)=O)C(C)CC (centres undefined) here?
A: 102 % of control

Q: What about the T/C (dose: 3.12 mg/kg/injection, schedule: Q01DX005 (ip), vehicle: Klucel (hydroxypropylcellulose) (HPC)) of the same compound?
A: 100 % of control

Q: And the T/C (dose: 6.25 mg/kg/injection, schedule: Q01DX005 (ip), vehicle: Klucel (hydroxypropylcellulose) (HPC))?
A: 95 % of control

Q: And the T/C (dose: 12.5 mg/kg/injection, schedule: Q01DX005 (ip), vehicle: Klucel (hydroxypropylcellulose) (HPC))?
A: 94 % of control and 96 % of control

Q: Which results are given for Cc1cccc(-n2c(C)nc3[nH]cc(C)c3c2=N)c1?
A: T/C [13]: 99 % of control; T/C [14]: 105 % of control

Q: What does the source list for O=C1CSC(=S)N1C1CC1?
A: T/C [12]: 95 % of control; T/C [10]: 86 % of control; T/C [11]: 87 % of control

Q: Which results are given for CCN(CC)CCNc1ccc(COC(C)=O)c2oc3ccccc3c(=O)c12?
A: T/C (dose: 6.25 mg/kg/injection, schedule: Q01DX005 (ip), vehicle: saline with Tween-80): 111 % of control; T/C [1]: 118 % of control

Q: What does the source list for Cc1cccc(Nc2nc(C)nc3[nH]c(CC(C)C)c(C)c23)c1?
A: T/C [13]: 91 % of control; T/C [14]: 96 % of control; T/C [15]: 98 % of control

Q: Which T/C [13] does the source give for COC1C2=C(CCCC2)OC(=O)C1(Cl)c1ccccc1 (centres undefined) here?
A: 96 % of control

Q: And the T/C [14]?
A: 101 % of control

Q: What about the T/C [15] of the same compound?
A: 101 % of control

Q: For COC(=O)C1(CC(=O)c2ccccc2)NC(=S)NC(=O)C1C#N (centres undefined), which T/C [3] is on record?
A: 103 % of control

Q: What about the T/C [4] of the same compound?
A: 98 % of control

Q: What about the T/C [5] of the same compound?
A: 98 % of control

Q: With Cc1c2noc1CCCCCCCCCCC2 as the compound, how does the T/C [13] read?
A: 104 % of control

Q: What about the T/C [14] of the same compound?
A: 110 % of control

Q: What about the T/C [15] of the same compound?
A: 102 % of control

Q: How did the T/C (dose: 60.0 mg/kg/injection, schedule: Q01DX005 (ip), vehicle: saline) turn out when Oc1ccc2c(c1O)/C(=C/C=NCC1(O)OCC(O)C(O)C1O)C=N2 (centres undefined) was run?
A: 101 % of control

Q: And the T/C (dose: 120.0 mg/kg/injection, schedule: Q01DX005 (ip), vehicle: saline)?
A: 98 % of control

Q: What about the T/C (dose: 240.0 mg/kg/injection, schedule: Q01DX005 (ip), vehicle: saline) of the same compound?
A: 101 % of control

Q: How did the T/C (dose: 6.25 mg/kg/injection, schedule: Q01DX009 (ip), vehicle: distilled water + Tween-80) turn out when CCOC(=O)c1ccc(N=C=S)cc1 was run?
A: 100 % of control

Q: What about the T/C (dose: 12.5 mg/kg/injection, schedule: Q01DX009 (ip), vehicle: distilled water + Tween-80) of the same compound?
A: 100 % of control

Q: What about the T/C (dose: 25.0 mg/kg/injection, schedule: Q01DX009 (ip), vehicle: distilled water + Tween-80) of the same compound?
A: 100 % of control and 111 % of control

Q: What about the T/C (dose: 50.0 mg/kg/injection, schedule: Q01DX009 (ip), vehicle: distilled water + Tween-80) of the same compound?
A: 117 % of control

Q: What about the T/C (dose: 100.0 mg/kg/injection, schedule: Q01DX009 (ip), vehicle: distilled water + Tween-80) of the same compound?
A: 109 % of control

Q: Which T/C [12] does the source give for CCCCCCC1(/C=C/c2ccc(Cl)c(Cl)c2)OCC(C)(C)CO1 here?
A: 100 % of control

Q: What about the T/C [10] of the same compound?
A: 89 % of control

Q: What about the T/C [11] of the same compound?
A: 90 % of control
